Experimental data as given in patent publication US20210301038A1, “POLYSIALIC ACID AND DERIVATIVES THEREOF, PHARMACEUTICAL COMPOSITION AND METHOD OF PRODUCING POLYSIALIC ACID” (Medizinische Hochschule Hannover (MHH), priority 2018, published 2021).

System: C57BL/6J mice with intra-mPFC endoNF injection
Assay: Novel object recognition test before and after intra-mPFC endoNF injection
Assay type: in vivo, mouse
Conditions: 30 min before encoding; sarcosine 600 mg/kg i.p. (d2); DP12 (d5) and DP1 (d6) 1 mg/kg intranasally
Procedure: Guide cannulas were fabricated using stainless steel tubing with outer/inner diameter Ø 0.711/0.483 mm (Science Products, Germany). Dummy cannulas were made from entomological pins, size 2, Ø 0.41 mm (FST, Germany). Chronic implantation of cannulas into the mPFC in mice was performed as described previously for intrahippocampal injections (Kochlamazashvili et al., 2012; Senkov et al., 2015; Senkov et al., 2006).
Acute injection of endoNF in vivo was done under a short isoflurane anesthesia. For intra-mPFC injection, we used a digitally controlled infusion system (UltraMicroPump, UMP3, and Micro4 Controller, WPI, USA) fed with a 10 μl-Hamilton syringe and NanoFil 135 μm (35 GA) beveled needle. The thin (135 μm) part of the needle went into the mouse brain during injection, whereas its thick part (430 μm) fit perfectly in the guide cannula (inside 483 μm). Injections were performed as follows: 1) a mouse was anesthetized with 1-3% isoflurane as during implantation; 2) it was put into the stereotaxic frame; 3) the dummy cannula was gently removed from the left guide cannula; 4) a NanoFil injecting needle was carefully placed inside of the guide cannula and advanced further down until reaching the marker (made with a permanent pen at the needle shank (430 μm) to visualize the point when the needle should reach the surface of the brain coming out of the guide cannula (equal to the length of guide cannula); 5) once the marker was reached, a slow (10 μm increment) step dial was used to deepen the needle into the brain; 6) endoNF (2 μg/μl) or vehicle was injected with the following settings: 250 nl per site as deep as 1.5 and 2.25 mm from the brain surface (total injection volume per hemisphere 500 nl, injection rate of 3 nl/s); 7) after injection was complete (˜5 min), the needle was left in the injection site for another 5 min and then gently removed; 8) the dummy cannula was then put back to its place; 9) the same procedure was performed for the right hemisphere. The whole injection process took approximately 20-25 min under isoflurane anesthesia, and the mice recovered rather quickly, starting to move in approximately 2-3 min after being returned to their home cages. Complete recovery of a mouse after such short anesthesia usually occurs within 3-5 min. After injection, mice were returned to their animal facility. Behavior experiments started on the day after injection at approximately the same time, so that we could perform cognitive tests 24 hours after injection.
A white open field arena (50×50×30 cm) was used in the novel object recognition task. All behavior was video recorded and analyzed automatically by software (ANY-maze, version 4.99, Stoelting Co., Wood Dale, Ill.). […]

## (α(2→8)Neu5Ac)12 [DP12]
  novel object recognition after intra-mPFC endoNF injection: significantly improved novel object recognition
